Earlier results on 36 molecules are cited in patent US20230117831A1, “MULTI-FUNCTIONAL CHIMERIC MOLECULES” (THE BROAD INSTITUTE, INC., priority 2020, published 2023).

Values joined by “and” are separate entries in the source; they are usually repeats but may differ in a detail not shown here. Equal values may be shown once. Read-outs that look alike come from different tables or passages of the source. Some results are limits rather than exact numbers.

The target of data set [1] is PKCalpha (Homo sapiens, UniProt P17252). Particulars: cited from earlier work.
For data set [2], the target named is PIK3Cγ (Homo sapiens, UniProt P48736). Particulars: cited from earlier work.
Chain of PIK3Cγ (P48736 whole entry): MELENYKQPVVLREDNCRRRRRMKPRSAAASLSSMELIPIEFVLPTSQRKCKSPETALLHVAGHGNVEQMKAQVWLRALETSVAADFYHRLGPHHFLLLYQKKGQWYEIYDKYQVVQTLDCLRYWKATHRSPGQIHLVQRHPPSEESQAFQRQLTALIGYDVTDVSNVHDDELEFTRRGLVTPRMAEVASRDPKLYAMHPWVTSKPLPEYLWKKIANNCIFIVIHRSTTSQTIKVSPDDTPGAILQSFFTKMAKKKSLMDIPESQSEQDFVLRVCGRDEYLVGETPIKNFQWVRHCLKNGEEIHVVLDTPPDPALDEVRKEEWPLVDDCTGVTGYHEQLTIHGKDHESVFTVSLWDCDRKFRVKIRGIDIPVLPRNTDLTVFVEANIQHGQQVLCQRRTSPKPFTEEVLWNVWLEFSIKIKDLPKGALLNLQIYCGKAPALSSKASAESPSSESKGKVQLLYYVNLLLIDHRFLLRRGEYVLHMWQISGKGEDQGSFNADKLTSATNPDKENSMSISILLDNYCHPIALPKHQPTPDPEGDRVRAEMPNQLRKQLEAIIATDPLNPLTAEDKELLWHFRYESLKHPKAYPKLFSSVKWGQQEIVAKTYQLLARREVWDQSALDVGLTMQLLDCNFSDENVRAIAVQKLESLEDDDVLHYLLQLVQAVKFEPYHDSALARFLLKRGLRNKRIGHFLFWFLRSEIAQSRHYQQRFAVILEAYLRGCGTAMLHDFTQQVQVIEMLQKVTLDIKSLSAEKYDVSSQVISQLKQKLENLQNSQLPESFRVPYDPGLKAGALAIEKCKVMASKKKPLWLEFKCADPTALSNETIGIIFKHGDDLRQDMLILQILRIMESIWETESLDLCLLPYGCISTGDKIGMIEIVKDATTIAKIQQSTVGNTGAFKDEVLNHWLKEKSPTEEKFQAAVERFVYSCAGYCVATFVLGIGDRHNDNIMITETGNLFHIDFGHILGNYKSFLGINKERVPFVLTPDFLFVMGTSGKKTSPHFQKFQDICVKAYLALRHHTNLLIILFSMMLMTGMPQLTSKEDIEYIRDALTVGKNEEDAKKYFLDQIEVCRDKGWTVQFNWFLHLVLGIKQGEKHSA
For data set [3], the target named is PIK3Cδ/PIK3R1 (Homo sapiens, UniProt O00329). Particulars: cited from earlier work.
Chain of PIK3Cδ/PIK3R1 (O00329 whole entry): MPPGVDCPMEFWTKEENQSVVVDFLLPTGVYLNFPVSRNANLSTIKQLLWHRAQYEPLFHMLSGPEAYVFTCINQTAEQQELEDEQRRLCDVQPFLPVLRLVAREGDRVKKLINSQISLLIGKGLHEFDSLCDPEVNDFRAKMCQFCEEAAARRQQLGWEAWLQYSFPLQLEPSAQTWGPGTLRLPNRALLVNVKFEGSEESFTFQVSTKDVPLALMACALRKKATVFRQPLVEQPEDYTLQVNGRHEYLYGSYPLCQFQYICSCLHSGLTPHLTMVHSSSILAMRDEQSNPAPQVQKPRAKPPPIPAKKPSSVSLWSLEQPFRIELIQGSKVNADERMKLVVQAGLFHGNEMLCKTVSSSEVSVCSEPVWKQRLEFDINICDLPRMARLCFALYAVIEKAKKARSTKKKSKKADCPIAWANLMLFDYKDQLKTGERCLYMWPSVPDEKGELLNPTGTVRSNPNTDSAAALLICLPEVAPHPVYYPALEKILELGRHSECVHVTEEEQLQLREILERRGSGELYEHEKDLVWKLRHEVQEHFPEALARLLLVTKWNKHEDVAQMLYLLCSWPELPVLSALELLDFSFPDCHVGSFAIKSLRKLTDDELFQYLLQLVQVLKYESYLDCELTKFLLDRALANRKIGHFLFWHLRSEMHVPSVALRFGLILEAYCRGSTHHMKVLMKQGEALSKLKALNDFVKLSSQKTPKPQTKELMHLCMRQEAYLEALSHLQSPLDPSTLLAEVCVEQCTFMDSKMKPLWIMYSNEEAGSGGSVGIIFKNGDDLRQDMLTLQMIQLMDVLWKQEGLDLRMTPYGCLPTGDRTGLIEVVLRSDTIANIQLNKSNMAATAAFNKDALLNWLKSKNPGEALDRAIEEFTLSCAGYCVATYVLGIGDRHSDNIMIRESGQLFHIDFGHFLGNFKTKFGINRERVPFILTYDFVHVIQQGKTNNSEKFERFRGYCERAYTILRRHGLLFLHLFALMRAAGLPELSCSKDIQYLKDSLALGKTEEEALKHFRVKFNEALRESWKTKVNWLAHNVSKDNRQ
Chain of PIK3Cδ/PIK3R1 (P27986 whole entry partner): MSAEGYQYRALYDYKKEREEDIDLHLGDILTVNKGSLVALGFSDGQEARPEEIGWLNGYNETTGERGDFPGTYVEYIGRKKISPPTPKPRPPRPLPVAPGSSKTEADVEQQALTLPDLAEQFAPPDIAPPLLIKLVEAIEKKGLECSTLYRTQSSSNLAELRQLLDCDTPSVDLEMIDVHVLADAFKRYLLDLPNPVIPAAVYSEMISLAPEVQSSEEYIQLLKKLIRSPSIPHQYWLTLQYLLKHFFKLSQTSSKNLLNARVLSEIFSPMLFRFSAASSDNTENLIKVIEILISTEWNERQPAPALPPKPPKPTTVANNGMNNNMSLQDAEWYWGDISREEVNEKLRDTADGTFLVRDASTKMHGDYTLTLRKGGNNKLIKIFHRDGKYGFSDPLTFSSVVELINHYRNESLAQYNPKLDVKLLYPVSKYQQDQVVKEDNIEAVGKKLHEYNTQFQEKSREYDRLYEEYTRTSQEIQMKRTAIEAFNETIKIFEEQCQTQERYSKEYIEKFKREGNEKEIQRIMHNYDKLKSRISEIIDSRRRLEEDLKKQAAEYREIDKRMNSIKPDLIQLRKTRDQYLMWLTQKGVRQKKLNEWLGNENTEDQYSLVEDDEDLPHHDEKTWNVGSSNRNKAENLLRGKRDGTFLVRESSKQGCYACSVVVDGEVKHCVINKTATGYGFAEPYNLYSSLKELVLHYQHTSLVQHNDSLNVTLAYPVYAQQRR
Data set [4] addresses PKC delta (Homo sapiens, UniProt Q05655). Particulars: PKC delta; read-out: Kd; cited from earlier work.
In data set [5] the target is PKC gamma (Homo sapiens, UniProt P05129). Particulars: cited from earlier work.
In data set [6] the target is T1, PKC epsilon (Homo sapiens, UniProt Q02156).
T1 sequence (Q02156 1-737): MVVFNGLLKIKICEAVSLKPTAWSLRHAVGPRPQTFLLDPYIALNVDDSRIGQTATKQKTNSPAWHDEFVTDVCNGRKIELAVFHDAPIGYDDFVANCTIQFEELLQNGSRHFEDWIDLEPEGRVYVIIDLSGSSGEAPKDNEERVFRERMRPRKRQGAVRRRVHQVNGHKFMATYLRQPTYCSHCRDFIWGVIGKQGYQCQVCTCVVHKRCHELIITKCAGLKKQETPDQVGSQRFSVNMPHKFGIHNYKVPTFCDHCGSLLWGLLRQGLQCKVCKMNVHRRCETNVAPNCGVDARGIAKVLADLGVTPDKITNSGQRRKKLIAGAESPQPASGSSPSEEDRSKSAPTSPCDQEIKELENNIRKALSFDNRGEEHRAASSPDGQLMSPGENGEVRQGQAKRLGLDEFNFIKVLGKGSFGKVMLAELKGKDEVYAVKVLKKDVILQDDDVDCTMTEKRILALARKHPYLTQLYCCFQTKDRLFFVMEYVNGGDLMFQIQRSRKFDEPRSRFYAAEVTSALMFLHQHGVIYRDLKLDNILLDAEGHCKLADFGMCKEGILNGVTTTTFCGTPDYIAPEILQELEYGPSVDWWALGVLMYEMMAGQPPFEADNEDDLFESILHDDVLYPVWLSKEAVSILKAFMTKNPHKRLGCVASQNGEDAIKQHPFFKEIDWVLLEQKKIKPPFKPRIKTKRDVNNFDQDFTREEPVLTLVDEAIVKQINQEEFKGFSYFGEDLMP
Particulars: PKC epsilon; read-out: Kd; cited from earlier work.

The target in data set [7] is PKC beta (Homo sapiens, UniProt P05771). Particulars: PKC beta; read-out: Kd; cited from earlier work.
Data set [8] deals with PIK3Cα/PIK3R1 (Homo sapiens, UniProt P42336). Particulars: cited from earlier work.
Chain of PIK3Cα/PIK3R1 (P42336 whole entry): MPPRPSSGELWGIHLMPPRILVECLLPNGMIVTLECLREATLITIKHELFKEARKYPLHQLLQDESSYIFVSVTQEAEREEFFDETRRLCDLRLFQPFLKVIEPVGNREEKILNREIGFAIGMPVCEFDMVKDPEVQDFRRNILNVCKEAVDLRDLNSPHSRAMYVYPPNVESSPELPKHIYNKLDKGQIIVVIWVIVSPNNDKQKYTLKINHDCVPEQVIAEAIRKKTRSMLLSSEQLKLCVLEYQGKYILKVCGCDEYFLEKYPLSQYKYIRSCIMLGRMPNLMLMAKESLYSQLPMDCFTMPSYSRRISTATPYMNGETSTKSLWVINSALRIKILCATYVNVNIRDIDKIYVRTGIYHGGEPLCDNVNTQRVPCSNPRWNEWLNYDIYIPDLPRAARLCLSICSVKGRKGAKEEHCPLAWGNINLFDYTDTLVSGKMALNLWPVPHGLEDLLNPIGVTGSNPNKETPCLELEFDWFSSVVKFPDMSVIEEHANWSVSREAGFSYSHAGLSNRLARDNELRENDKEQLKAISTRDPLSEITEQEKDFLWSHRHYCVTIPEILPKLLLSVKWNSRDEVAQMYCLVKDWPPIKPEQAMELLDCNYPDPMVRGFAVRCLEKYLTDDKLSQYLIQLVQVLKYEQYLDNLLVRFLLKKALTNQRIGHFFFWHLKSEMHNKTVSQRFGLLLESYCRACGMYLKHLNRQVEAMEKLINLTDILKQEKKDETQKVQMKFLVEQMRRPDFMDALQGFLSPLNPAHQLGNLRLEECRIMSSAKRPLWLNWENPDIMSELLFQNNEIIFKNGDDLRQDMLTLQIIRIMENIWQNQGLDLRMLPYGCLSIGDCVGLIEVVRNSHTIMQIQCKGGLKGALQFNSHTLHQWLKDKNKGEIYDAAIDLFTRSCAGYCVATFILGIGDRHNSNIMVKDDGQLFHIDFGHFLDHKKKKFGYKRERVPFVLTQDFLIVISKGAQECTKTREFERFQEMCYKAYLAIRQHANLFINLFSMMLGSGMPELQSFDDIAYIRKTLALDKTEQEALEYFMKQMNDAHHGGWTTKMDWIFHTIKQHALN
Chain of PIK3Cα/PIK3R1 (P27986 whole entry partner): as the sequence (P27986 whole entry partner) above
The target in data set [9] is T2, AurA (AURKA) (Homo sapiens, UniProt O14965).
T2 sequence (O14965 1-403): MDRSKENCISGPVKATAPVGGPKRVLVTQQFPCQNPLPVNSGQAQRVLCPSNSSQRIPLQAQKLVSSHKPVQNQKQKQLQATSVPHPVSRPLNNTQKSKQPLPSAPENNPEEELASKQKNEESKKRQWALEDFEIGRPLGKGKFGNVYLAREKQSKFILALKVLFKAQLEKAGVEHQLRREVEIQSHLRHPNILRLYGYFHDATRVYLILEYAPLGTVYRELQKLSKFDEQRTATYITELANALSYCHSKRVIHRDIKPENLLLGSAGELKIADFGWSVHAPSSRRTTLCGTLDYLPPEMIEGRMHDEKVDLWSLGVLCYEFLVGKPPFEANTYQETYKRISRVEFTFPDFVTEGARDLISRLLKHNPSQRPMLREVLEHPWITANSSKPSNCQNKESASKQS
Particulars: cited from earlier work.

Chain of PKC delta (Q05655 whole entry): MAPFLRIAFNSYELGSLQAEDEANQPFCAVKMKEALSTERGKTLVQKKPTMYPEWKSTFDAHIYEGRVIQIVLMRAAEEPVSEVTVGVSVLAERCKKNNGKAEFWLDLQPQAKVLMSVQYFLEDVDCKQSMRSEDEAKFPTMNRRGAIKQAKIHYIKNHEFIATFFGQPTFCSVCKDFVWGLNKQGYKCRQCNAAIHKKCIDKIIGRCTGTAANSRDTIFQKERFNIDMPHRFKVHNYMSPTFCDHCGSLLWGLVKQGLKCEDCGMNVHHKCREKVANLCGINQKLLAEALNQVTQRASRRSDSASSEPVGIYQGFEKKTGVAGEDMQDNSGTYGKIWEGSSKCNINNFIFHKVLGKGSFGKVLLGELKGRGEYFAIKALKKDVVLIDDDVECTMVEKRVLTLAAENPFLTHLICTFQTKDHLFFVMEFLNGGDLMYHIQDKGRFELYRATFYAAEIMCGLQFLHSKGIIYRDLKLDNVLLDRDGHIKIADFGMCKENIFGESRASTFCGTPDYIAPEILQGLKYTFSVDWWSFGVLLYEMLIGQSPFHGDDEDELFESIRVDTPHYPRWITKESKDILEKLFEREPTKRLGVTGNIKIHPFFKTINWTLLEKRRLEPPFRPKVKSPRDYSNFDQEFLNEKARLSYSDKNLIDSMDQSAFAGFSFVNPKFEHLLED

The term Kd denotes the free concentration of one partner at which half of the binding sites on the other are occupied at equilibrium, for simple one-to-one binding. Take `CC(C)[C@H]1C(=O)N[C@H](CO)Cc2ccc(NC(=O)/C=C/C=C/c3ccccc3)cc2N1C`: in data set [1] (PKC alpha, read-out: Kd), the Kd is 49.8 nM.

For `CC(C)[C@H]1C(=O)N[C@H](CO)Cc2cc(NC(=O)CCCCc3ccccc3)ccc2N1C`, the Kd in data set [1] (PKC alpha, read-out: Kd) was 34.2 nM.

For the molecule `CCCCCCCCc1cccc(C(=O)Nc2ccc3c(c2)N(C)[C@@H](C(C)C)C(=O)NC(CO)C3)c1` (stereo partly drawn), the Kd in data set [1] (PKC alpha, read-out: Kd) was 3.2 nM.

Take `CCCCc1ccc(C(=O)Nc2ccc3c(c2)N(C)[C@@H](C(C)C)C(=O)NC(CO)C3)cc1` (stereo partly drawn): the Kd in data set [1] (PKC alpha, read-out: Kd) is 9.5 nM.

For `CCCCCCCCC#Cc1cccc(-c2ccc3c(c2)N(C)[C@@H](C(C)C)C(=O)N[C@H](CO)C3)c1`, the Kd in [1] (PKC alpha, read-out: Kd) is 5.9 nM.

As to `CCCCCCCCC#Cc1ccc(-c2ccc3c(c2)C[C@@H](CO)NC(=O)[C@H](C(C)C)N3C)cc1`, the Kd in data set [1] (PKC alpha, read-out: Kd) was 703 nM.

In the case of `CC(C)[C@H]1C(=O)NC(CO)Cc2ccc(NC(=O)c3ccc(-c4ccccc4)cc3)cc2N1C` (stereo partly drawn), the Kd in data set [1] (PKC alpha, read-out: Kd) is 25.9 nM.

As to `Cc1nc(NC(=O)N2CCC[C@H]2C(N)=O)sc1-c1ccnc(C(C)(C)C(F)(F)F)c1` [Alpelisib], in [2], the ka is 4.05e+06 M⁻¹ s⁻¹, the kd is 0.0395 s⁻¹, the “log(ka)” value is 6.61 and the “log(kd)” value is −1.40. In [3], the ka was 6.16e+06 M⁻¹ s⁻¹, the kd was 0.0641 s⁻¹, the “log(ka)” value is listed as 6.79 and the “log(kd)” value is recorded as −1.19.

`CCCCC#Cc1cccc(-c2ccc3c(c2)N(C)[C@@H](C(C)C)C(=O)N[C@H](CO)C3)c1`: in data set [1] (PKC alpha, read-out: Kd), the Kd is 3 nM.

As for `CC(C)[C@H]1C(=O)N[C@H](CO)Cc2cc(NC(=O)CCCCc3cc(C(F)(F)F)cc(C(F)(F)F)c3)ccc2N1C`, the Kd in data set [1] (PKC alpha, read-out: Kd) was 7.8 nM.

As to `CCCCCCCCC#Cc1cccc(-c2ccc3c(c2)C[C@@H](CO)NC(=O)[C@H](C(C)C)N3C)c1`, the Kd in data set [1] (PKC alpha, read-out: Kd) was 309 nM.

In the case of `CCCCCCCCC#Cc1ccccc1-c1ccc2c(c1)N(C)[C@@H](C(C)C)C(=O)NC(CO)C2` (stereo partly drawn), the Kd in data set [1] (PKC alpha, read-out: Kd) is 3.6 nM.

Take `CC(C)C1C(=O)NC(CO)Cc2cc(NC(=O)C=CC=Cc3ccccc3)ccc2N1C` (stereo not drawn): the Kd in data set [1] (PKC alpha, read-out: Kd) is 15.8 nM.

Consider `CC(C)[C@H]1C(=O)NC(CO)Cc2ccc(NC(=O)CCc3ccccc3)cc2N1C` (stereo partly drawn), for which the Kd in data set [1] (PKC alpha, read-out: Kd) is 116 nM.

`CCCCCCCCCCc1ccc2c(c1)C[C@@H](CO)NC(=O)[C@H](C(C)C)N2C`: the Kd in [4] is 185 nM; in data set [5] it was 140 nM; in [6] it was 187 nM; in data set [1], 46.6 nM; in data set [7], 58.2 nM.

As for `CCCCC#Cc1cccc(C(=O)Nc2ccc3c(c2)N(C)[C@@H](C(C)C)C(=O)NC(CO)C3)c1` (stereo partly drawn), the Kd in data set [1] (PKC alpha, read-out: Kd) was 4.1 nM.

On to `CCCCCCCCC#Cc1ccc(-c2ccc3c(c2)C[C@@H](CO)NC(=O)[C@H](C(C)C)N3C)s1`, for which the Kd in data set [1] (PKC alpha, read-out: Kd) is 396 nM.

On to `CC(C)[C@H]1C(=O)N[C@H](CO)Cc2ccc(NC(=O)/C=C/c3ccccc3)cc2N1C`, for which, in data set [1] (PKC alpha, read-out: Kd), the Kd is 114 nM.

For the molecule `COc1ccc(-c2ccc3c(N4CCOC[C@@H]4C)nc(N4CCOC[C@@H]4C)nc3n2)cc1CO` [AZD-8055], in data set [2], the Kd is 92.5 nM, the ka was 1.59e+06 M⁻¹ s⁻¹, the kd is 0.147 s⁻¹ and the “log(ka)” value is on record as 6.20. In [2], the “log(kd)” value is given as −0.83 and the “residence time (τ)” value was 7 s. Besides, in data set [8], the Kd is 9.4 nM, the ka was 3.61e+06 M⁻¹ s⁻¹, the kd was 0.0339 s⁻¹ and the “log(ka)” value is 6.56. Also, in [8], the “log(kd)” value is −1.47 and the “residence time (τ)” value is recorded as 29 s. In data set [3], the Kd was 33.6 nM, the ka is 1.93e+06 M⁻¹ s⁻¹, the kd is 0.065 s⁻¹ and the “log(ka)” value is 6.29. Also, in [3], the “log(kd)” value was −1.19 and the “residence time (τ)” value is given as 15 s.

For the molecule `CCCCCCCCCCc1cccc2c1C[C@@H](CO)NC(=O)[C@H](C(C)C)N2C`, the Kd in data set [4] was 169 nM; in data set [5] (PKC gamma, read-out: Kd) it was 409 nM; in [6], 60 nM; in data set [1] (PKC alpha, read-out: Kd), 513 nM; in data set [7], 309 nM.

For the molecule `CCCCCCCCC#Cc1ccc(-c2ccc3c(c2)N(C)[C@@H](C(C)C)C(=O)N[C@H](CO)C3)s1`, the Kd in data set [1] (PKC alpha, read-out: Kd) was 25 nM.

With `CC(C)[C@H]1C(=O)N[C@H](CO)Cc2ccc(NC(=O)CCCCc3ccccc3)cc2N1C`, the Kd in data set [1] (PKC alpha, read-out: Kd) is 18.3 nM.

Regarding `CC(C)[C@H]1C(=O)N[C@H](CO)Cc2ccc(-c3ccc(NC(=O)OC(C)(C)C)cc3)cc2N1C`, the Kd in [1] (PKC alpha, read-out: Kd) was 31.5 nM.

Turning to `CC(C)[C@H]1C(=O)NC(CO)Cc2ccc(NCc3ccccc3)cc2N1C` (stereo partly drawn), the Kd in data set [1] (PKC alpha, read-out: Kd) is 3.8 nM.

As to `CCCCCCCCc1ccc2c3c(c[nH]c13)CC[C@@H](CO)NC(=O)[C@H](C(C)C)N2C`, the Kd in data set [4] was 0.8 nM; in data set [5] (PKC gamma, read-out: Kd), 1.2 nM; in [6] it was 1 nM; in data set [1] (PKC alpha, read-out: Kd) it was 0.5 nM; in [7], 0.4 nM.

Turning to `CC(C)[C@H]1C(=O)N[C@H](CO)Cc2ccccc2N1C`, in data set [1] (PKC alpha, read-out: Kd), the Kd is 334 nM.

Take `CCCCC#Cc1ccccc1-c1ccc2c(c1)N(C)[C@@H](C(C)C)C(=O)NC(CO)C2` (stereo partly drawn): the Kd in [1] (PKC alpha, read-out: Kd) was 3.1 nM.

With `CC(C)[C@H]1C(=O)N[C@H](CO)Cc2cc(NC(=O)CCCCc3ccc(/C=C/C(F)(F)C(F)(F)C(F)(F)C(F)(F)C(F)(F)C(F)(F)F)cc3)ccc2N1C`, the Kd in data set [1] (PKC alpha, read-out: Kd) was 11.2 nM.

Turning to `Nc1cc(C(F)(F)F)c(-c2cc(N3CCOCC3)nc(N3CCOCC3)n2)cn1` [Buparlisib], in data set [8], the ka was 3.26e+06 M⁻¹ s⁻¹, the kd is 0.0209 s⁻¹, the “log(ka)” value is 6.51 and the “log(kd)” value is −1.68.

For `CC(C)[C@H]1C(=O)N[C@H](CO)Cc2cc(NC(=O)CCCCc3ccc(C(F)(F)F)cc3)ccc2N1C`, the Kd in data set [1] is 12.5 nM.

`CC(C)[C@H]1C(=O)N[C@H](CO)Cc2ccc(NC(=O)c3ccccc3)cc2N1C`: in data set [1] (PKC alpha, read-out: Kd), the Kd is 174 nM.

For the molecule `CCCCCCCCC#Cc1cccc2c1C[C@@H](CO)NC(=O)[C@H](C(C)C)N2C`, the Kd is 2100 nM in [4]; above 10000 nM in data set [5] (PKC gamma, read-out: Kd); 2560 nM in data set [6]; 4530 nM in [1] (PKC alpha, read-out: Kd); 1690 nM in data set [7].

For the molecule `Cn1c(=O)n(-c2ccc(C(C)(C)C#N)cc2)c2c3cc(-c4cnc5ccccc5c4)ccc3ncc21` [Dactolisib], in data set [2], the ka is 589000 M⁻¹ s⁻¹, the kd is 0.0433 s⁻¹, the “log(ka)” value is given as 5.77 and the “log(kd)” value is reported as −1.36. In data set [8], the ka is 2.3e+06 M⁻¹ s⁻¹, the kd was 0.0228 s⁻¹, the “log(ka)” value is recorded as 6.36 and the “log(kd)” value is on record as −1.64. Also, in data set [3], the ka was 1.52e+06 M⁻¹ s⁻¹, the kd was 0.0327 s⁻¹, the “log(ka)” value is reported as 6.16 and the “log(kd)” value is given as −1.49.

In the case of `CC(C)[C@H]1C(=O)N[C@H](CO)Cc2cc(NC(=O)CCCCc3ccc(CCC(F)(F)C(F)(F)C(F)(F)C(F)(F)C(F)(F)C(F)(F)F)cc3)ccc2N1C`, the Kd in data set [1] (PKC alpha, read-out: Kd) was 9.2 nM.

For the molecule `O=C(O)[C@]1(Cc2cccc(Nc3nccs3)n2)CC[C@@H](Oc2cccc(Cl)c2F)CC1` [MK5108], in data set [9], the ka was 3.41e+06 M⁻¹ s⁻¹; the kd is 0.0155 s⁻¹; the “log(ka)” value was 6.53 and 6.56; the “log(kd)” value is on record as −1.81.

`CO[C@@H](C(=O)N1Cc2n[nH]c(NC(=O)c3ccc(N4CCN(C)CC4)cc3)c2C1)c1ccccc1` [Danusertib]: in data set [9], the ka is 512000 M⁻¹ s⁻¹, the kd is 0.000868 s⁻¹, the “log(ka)” value was 5.71 and the “log(kd)” value is listed as −3.06.
